Results from paper PMC10065799, “High-throughput profiling of sequence recognition by tyrosine kinases and SH2 domains using bacterial peptide display” (eLife, 2023).

Biological target: T1, c-Abl kinase domain (Mus musculus, UniProt P00520)
T1 sequence (P00520 242-493 limits assumed): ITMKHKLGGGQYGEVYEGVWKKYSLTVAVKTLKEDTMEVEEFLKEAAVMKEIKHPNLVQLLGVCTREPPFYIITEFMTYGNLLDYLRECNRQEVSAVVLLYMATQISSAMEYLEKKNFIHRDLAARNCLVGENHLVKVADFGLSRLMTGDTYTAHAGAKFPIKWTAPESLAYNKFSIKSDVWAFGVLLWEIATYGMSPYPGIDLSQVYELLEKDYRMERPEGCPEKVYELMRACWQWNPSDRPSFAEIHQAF
Assay: pTyr-Var library bacterial peptide display kinase screen (enrichment scores)
Type: biochemical
Conditions: variant versus reference peptide

ATVQNYLPKCI [A2M_Y817_L815Q]
c-Abl difference (mean log2 variant - mean log2 reference): -0.04049

LHVGFYESDVM [A2M_Y708_R704H]
c-Abl difference (mean log2 variant - mean log2 reference): -1.318
